Here are results for 40 compounds from patent US20230078764A1 (Yumanity Therapeutics, Inc., priority 2019, published 2023).

SMILES strings stand for the structures. A value given as a limit tells only on which side of the number the result lay.

The target of one assay is T1, human SCD5 (Homo sapiens, UniProt Q86SK9).
T1 construct: expressed in transfected cells; host or cells: yeast strain with OLE1 deleted, plasmid-borne human SCD5 (selected in SD-Ura)
T1 sequence (Q86SK9 1-330): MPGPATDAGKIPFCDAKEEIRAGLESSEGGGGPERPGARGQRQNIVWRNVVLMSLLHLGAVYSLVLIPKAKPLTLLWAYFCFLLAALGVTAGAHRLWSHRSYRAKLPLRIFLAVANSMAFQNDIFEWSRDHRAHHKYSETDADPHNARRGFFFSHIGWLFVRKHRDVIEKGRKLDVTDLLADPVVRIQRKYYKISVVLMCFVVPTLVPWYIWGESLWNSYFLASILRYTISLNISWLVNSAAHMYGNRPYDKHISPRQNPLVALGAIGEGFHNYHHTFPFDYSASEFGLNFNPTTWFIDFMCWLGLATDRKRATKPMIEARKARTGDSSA
Nature of the assay: Growth inhibition of yeast strain expressing human SCD5 as sole desaturase (OLE1 deleted), OD600 readout. It is filed as cell-based. Particulars: yeast strain expressing human SCD5 as sole desaturase; growth (OD600) after 40 h at 30° C.; read-out: SCD5 IC50.

Another assay deals with T2, human SCD1 (Homo sapiens, UniProt O00767).
T2 construct: expressed in transfected cells; host or cells: yeast strain with OLE1 deleted, plasmid-borne human SCD1 (selected in SD-Ura)
T2 sequence (O00767 1-359): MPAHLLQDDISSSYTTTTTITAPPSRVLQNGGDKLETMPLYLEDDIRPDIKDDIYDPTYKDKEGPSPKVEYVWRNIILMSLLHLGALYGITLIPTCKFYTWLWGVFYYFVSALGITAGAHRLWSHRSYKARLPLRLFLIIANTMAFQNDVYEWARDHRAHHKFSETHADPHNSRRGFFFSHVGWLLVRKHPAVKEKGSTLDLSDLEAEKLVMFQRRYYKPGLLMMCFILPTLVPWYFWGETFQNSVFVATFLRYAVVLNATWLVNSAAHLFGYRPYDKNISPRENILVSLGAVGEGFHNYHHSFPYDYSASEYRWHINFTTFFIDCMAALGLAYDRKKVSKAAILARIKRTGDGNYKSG
The experiment in a line: Growth inhibition of yeast strain expressing human SCD1 as sole desaturase (OLE1 deleted), OD600 readout. Particulars: yeast strain expressing human SCD1 as sole desaturase; growth (OD600) after 40 h at 30° C.; read-out: SCD1 IC50. Format: cell-based.

Usually IC50 stands for the concentration that gives 50% inhibition. With `Cn1nc(C(=O)Nc2ncc(Cc3ccc(F)c(F)c3)cc2F)ccc1=O` [Compound 577], the IC50 stood at 6400 nM at human SCD5 and 23000 nM on human SCD1.
On the same counts, the results for `N#Cc1ccc(C(=O)Nc2ccc(Cc3cc(F)cc(C#N)c3)cn2)nc1` [Compound 536] are 110 nM and 1000 nM.
On the same counts, the results for `Cn1nc(C(=O)Nc2ccc(Cc3cc(F)cc(F)c3)cn2)ccc1=O` [Example 37, N-(5-(3,5-difluorobenzyl)pyridin-2-yl)-1-methyl-6-oxo-1,6-dihydropyridazine-3-carboxamide] are 50 nM and 10200 nM.
In the same order, the values of `COc1cccc(Cc2ccc(NC(=O)c3ccc(=O)n(C)n3)nc2)c1` [Example 44, N-(5-(3-methoxybenzyl)pyridin-2-yl)-1-methyl-6-oxo-1,6-dihydropyridazine-3-carboxamide] are 780 nM and 14100 nM.
In the case of `CN1N=C(C(=O)Nc2ncc(Cc3ccccc3F)s2)CCC1=O` [Compound 206, N-(5-(2-fluorobenzyl)thiazol-2-yl)-1-methyl-6-oxo-1,4,5,6-tetrahydropyridazine-3-carboxamide], the IC50 amounted to 2510 nM on human SCD5 and 3360 nM on human SCD1.
Take `O=C(Nc1ccc(CC2CCCCC2)cn1)c1ccc(CO)cn1` [Compound 321]: the IC50 at human SCD5 and at human SCD1 was 10 nM in each case.
Turning to `Cn1cc(C(=O)Nc2ccc(Cc3cccc(Cl)c3)cn2)ncc1=O` [Compound 108, N-(5-(3-chlorobenzyl)pyridin-2-yl)-4-methyl-5-oxo-4,5-dihydropyrazine-2-carboxamide], the IC50 amounted to 1400 nM on human SCD5 and 7610 nM on human SCD1.
In the same order, the values of `CN1N=C(C(=O)Nc2ccc(CCc3cccc(Cl)c3)nn2)CCC1=O` [Compound 246] are 1590 nM and 6450 nM.
On to `CO[C@H]1C[C@@H](C(=O)Nc2ccc(Cc3cccc(F)c3)cn2)N(C(=O)OC(C)(C)C)C1` [Compound 446], for which the IC50 at human SCD5 and at human SCD1 was above 45000 nM in each case.
As to `Cc1cc(C(=O)Nc2ccc(Cc3cc(F)cc(F)c3)cn2)nn(C)c1=O` [Compound 524], the results for the IC50 on human SCD5 and at human SCD1 were 29 nM and above 45000 nM, respectively.
On the same counts, the results for `Cn1cc(NC(=O)N2CCC(Cc3cccc(Cl)c3)CC2)ccc1=O` [Compound 308] are 3120 nM and 22800 nM.
For `Cn1ccc(C(=O)Nc2ccc(Cc3ccc(F)cc3)cn2)n1` [Compound 93, N-(5-(4-fluorobenzyl)pyridin-2-yl)-1-methyl-1H-pyrazole-3-carboxamide], the IC50 on human SCD5 worked out at 20 nM; at human SCD1, 550 nM.
`Cc1cncc(Cc2ccc(NC(=O)c3ccc(=O)n(C)c3)nc2)c1` [Compound 450]: the IC50 on human SCD5 and on human SCD1 was above 45000 nM throughout.
`CN1N=C(C(=O)Nc2ccc(Cc3ccc(F)c(C#N)c3)cn2)CCC1=O` [Compound 10, N-(5-(3-cyano-4-fluorobenzyl)pyridin-2-yl)-1-methyl-6-oxo-1,4,5,6-tetrahydropyridazine-3-carboxamide]: the IC50 on human SCD5 was 500 nM; at human SCD1, 9540 nM.
Consider `Cc1nccc(NC(=O)c2ccc(Cc3cccc(F)c3)cn2)n1` [Compound 115, 5-(3-Fluorobenzyl)-N-(2-methylpyrimidin-4-yl)picolinamide], for which the IC50 at human SCD5 is 50 nM; at human SCD1 it was above 45000 nM.
As for `Cn1nc(C(=O)Nc2ccc(Cc3ccc(F)c(F)c3)cn2)ccc1=O` [Example 35, N-(5-(3,4-difluorobenzyl)pyridin-2-yl)-1-methyl-6-oxo-1,6-dihydropyridazine-3-carboxamide], the IC50 was 300 nM at human SCD5 and above 45000 nM on human SCD1.
Turning to `COc1cc(Cc2cccc(Cl)c2)cnc1NC(=O)C1=NN(C)C(=O)CC1` [Compound 387], the IC50 on human SCD5 and on human SCD1 was above 45000 nM each time.
As for `N#Cc1cc(F)cc(Cc2ccc(NC(=O)c3cnc(C#N)cn3)nc2)c1` [Compound 655], the IC50 was found to be 35 nM at human SCD5 and 360 nM on human SCD1.
For the compound `CCn1cc(C(=O)Nc2ccc(CC3CCCCC3)cn2)ccc1=O` [Compound 326], the figures for the IC50 on human SCD5 and at human SCD1 were 4710 nM and above 45000 nM, respectively.
On to `Cn1cc(C(=O)Nc2ccc(OCc3cccc(Cl)c3)cn2)ccc1=O` [Compound 361], for which the IC50 at human SCD5 is 2630 nM; on human SCD1, above 45000 nM.
For the compound `Cn1cc(C(=O)Nc2ccc(Cc3cccc(F)c3)cc2)ccc1=O` [Compound 5, N-(4-(3-fluorobenzyl)phenyl)-1-methyl-6-oxo-1,6-dihydropyridine-3-carboxamide], the concentration for half-maximal inhibition (IC50) on human SCD5 worked out at 1870 nM; on human SCD1 it was 3340 nM.
For `CN1N=C(C(=O)Nc2ccc(Cc3cccc(C(F)(F)F)c3)nn2)CCC1=O` [Compound 194, 1-methyl-6-oxo-N-(6-(3-(trifluoromethyl)benzyl)pyridazin-3-yl)-1,4,5,6-tetrahydropyridazine-3-carboxamide], the 50% inhibitory concentration (IC50) was 1540 nM at human SCD5 and above 45000 nM on human SCD1.
For `CC(C)N1N=C(C(=O)Nc2ncc(Cc3cccc(Cl)c3)s2)CCC1=O` [Compound 222, N-(5-(3-Chlorobenzyl)thiazol-2-yl)-1-isopropyl-6-oxo-1,4,5,6-tetrahydropyridazine-3-carboxamide], the half-inhibitory concentration (IC50) on human SCD5 came to 2510 nM; at human SCD1, 7450 nM.
On the same counts, the results for `N#Cc1ccc(C(=O)Nc2ccc(CNc3cccc(Cl)c3)cn2)nc1` [Compound 498] are 5200 nM and 2700 nM.
On the same counts, the results for `CCn1nc(C(=O)Nc2ccc(Cc3cccc(Cl)c3)cn2)ccc1=O` [Compound 67, N-(5-(3-chlorobenzyl)pyridin-2-yl)-1-ethyl-6-oxo-1,6-dihydropyridazine-3-carboxamide] are 120 nM and 440 nM.
As for `CN1N=C(C(=O)Nc2ccc(Cc3ccc(C#N)c(F)c3)cn2)CCC1=O` [Compound 470], the 50% inhibitory concentration (IC50) on human SCD5 and on human SCD1 was above 45000 nM in each case.
On to `O=C(Nc1ccc(Cc2cccc(F)c2)cn1)c1ccc(F)c(Cl)n1` [Compound 417], for which the IC50 on human SCD5 and at human SCD1 was above 45000 nM each time.
As for `Cc1nccc(C(=O)Nc2ccc(Cc3ccc(F)c(C#N)c3)cn2)n1` [Compound 113, N-(5-(3-cyano-4-fluorobenzyl)pyridin-2-yl)-2-methylpyrimidine-4-carboxamide], the figures for the IC50 on human SCD5 and at human SCD1 were 10 nM and 80 nM, respectively.
For the compound `Cn1cc(C(=O)Nc2nnc(Cc3cc(F)cc(Cl)c3)s2)ccc1=O` [Compound 431], the IC50 on human SCD5 is above 45000 nM; on human SCD1, 1070 nM.
As to `N#Cc1ccc(C(=O)Nc2ccc(COc3cccc(Cl)c3)cn2)cn1` [Compound 492], the IC50 at human SCD5 is 5800 nM; at human SCD1 it was above 45000 nM.
Take `Cn1ccc(C(=O)Nc2ccc(Cc3cccc(F)c3)cn2)cc1=O` [Compound 240]: the IC50 worked out at 310 nM at human SCD5 and 4390 nM at human SCD1.
Consider `Cn1nccc(C(=O)Nc2ccc(Cc3ccc(F)c(F)c3)cn2)c1=O` [Compound 547], for which the IC50 on human SCD5 was determined as 10 nM; on human SCD1, 240 nM.
For the compound `Cn1nc(C(=O)N2CCC(Oc3cccc(Cl)c3)CC2)ccc1=O` [Compound 432], the IC50 on human SCD5 and at human SCD1 was above 45000 nM in each case.
Regarding `C=C(OCC)c1ccc(C(=O)Nc2ccc(Cc3cccc(Cl)c3)cn2)cn1` [Compound 320], the IC50 at human SCD5 was 1580 nM; at human SCD1, above 45000 nM.
On to `CCn1ccc(C(=O)Nc2ccc(Cc3cccc(Cl)c3)cn2)n1` [Compound 100, N-(5-(3-chlorobenzyl)pyridin-2-yl)-1-ethyl-1H-pyrazole-3-carboxamide], for which the IC50 on human SCD5 came to 20 nM; at human SCD1, 1740 nM.
For `Cn1nc(C(=O)Nc2ccc(Cc3cc(F)cc(Cl)c3)cn2)ccc1=O` [Example 40, N-(5-(3-chloro-5-fluorobenzyl)pyridin-2-yl)-1-methyl-6-oxo-1,6-dihydropyridazine-3-carboxamide], the IC50 on human SCD5 amounted to 10 nM; on human SCD1, 110 nM.
On the same counts, the results for `Cn1nc(C(=O)Nc2ccc(Cc3ccc(Cl)cc3)cn2)ccc1=O` [Example 36, N-(5-(4-chlorobenzyl)pyridin-2-yl)-1-methyl-6-oxo-1,6-dihydropyridazine-3-carboxamide] are 380 nM and 16900 nM.
Regarding `CN1N=C(C(=O)Oc2ccc(NCc3cccc(Br)c3)nc2)CCC1=O` [Compound 268], the figures for the half-inhibitory concentration (IC50) at human SCD5 and on human SCD1 were 3040 nM and above 45000 nM, respectively.
Consider `Cc1nnc(C(=O)Nc2ccc(Cc3cccc(Cl)c3)cn2)o1` [Compound 104, N-(5-(3-chlorobenzyl)pyridin-2-yl)-5-methyl-1,3,4-oxadiazole-2-carboxamide], for which the IC50 at human SCD5 and on human SCD1 was 40 nM in each case.
In the case of `CNC(=O)c1ccc(C(=O)Nc2ccc(Cc3cccc(Cl)c3)cn2)cn1` [Compound 592], the IC50 at human SCD5 was 276 nM; on human SCD1, above 45000 nM.
